The test system of one data set is GPX4 gene. In words: qRT-PCR relative expression of GPX4 gene after siGPX4 transfection, LNCaP and LNCaP-DTP cells. The conditions noted are these: for mRNA expression level of GPX4: LNCaP and drug-resistant LNCaP-DTP cells together; for Relative expression level of GPX4 gene: qRT-PCR; for interference activity on GPX4 gene expression (in words): drug-resistant or non-drug-resistant LNCaP cells and MyC-CaP cells. The data set is classed as cell-based, human. How it is done:
(§1) To screen for suitable siRNAs, the interference activity of the siRNAs designed in Example 1 was determined. • S1. LNCaP and MyC-CaP cells were seeded at 1×10^6 in a 10 cm cell culture dish. On the second day, the cells were attached and then treated with 50 μM enzalutamide (ENZ) for 9 days, during which the medium was replaced with a fresh drug-containing medium (1640 medium containing 50 µM ENZ) for culture every three days. The cells were collected. After the treatment for 9 days, the cells were drug-resistant (DTP cells) and were labeled as LNCaP-DTP cells and MyC-CaP-DTP cells, respectively. • S2. LNCaP, MyC-CaP, and LNCaP-DTP and MyC-CaP-DTP cells as collected in S1, were seeded in a 6 cm dish and a 10 cm dish that contain fresh complete medium (1640 medium containing 10% fetal bovine serum and 1% […]), attached, and then transfected with siPRDX5 and siGPX4 designed in Example 1, and then mRNA and protein were extracted. • S3. RNA level and protein level were determined by qRT-PCR and Western Blot assays, and siRNAs with interference activity were screened and obtained.
(§2) The results are shown in FIG. 2 and FIG. 3 as well as Tables 1 and 2. Using the same method as in Example 2, LNCaP and MyC-CaP cells as well as their derived LNCaP-DTP and MyC-CaP-DTP cells were treated with the above modified siRNAs. […] It is also found to be more efficient in interfering with human cells compared to mice.
Background: Quantitative PCR measures a nucleic acid by following its amplification.

The subject of another data set is GPX4. Put plainly: Western Blot / qRT-PCR expression of GPX4 after unmodified siGPX4. The class given is cell-based. To be noted: unmodified siRNA; LNCaP and MyC-CaP cells (FIG. 1, FIG. 4). As to the method: as §1
The subject of the next data set is PRDX5. Put plainly: Western Blot / qRT-PCR expression of PRDX5 after unmodified siPRDX5. To be noted: unmodified siRNA; LNCaP and MyC-CaP cells (FIG. 1, FIG. 4). The class given is cell-based. How it is done:
as §1
(In general: In western blotting, separated proteins are transferred to a membrane and probed.)

In a further data set the test system is PRDX5 gene. In words: qRT-PCR relative expression of PRDX5 gene after siPRDX5 transfection, LNCaP and LNCaP-DTP cells. To be noted: for mRNA expression level of PRDX5: LNCaP and drug-resistant LNCaP-DTP cells together; for Relative expression level of PRDX5 gene: qRT-PCR. The class given is cell-based, human. How it is done: as §1, §2
A further data set relates to MyC-CaP-DTP cells. In words: CCK8 cell survival, MyC-CaP-DTP cells. The data set is classed as cell-based, mouse. As to the method:
(§3) Further, drug-resistant LNCaP-DTP and MyC-CaP-DTP cells as well as 22Rv1 cells which are themselves ENZ-resistant were transfected with the modified #3-siPRDX5-1-16 or #3-siGPX4-1-16 or #3-siPRDX5-1-16+#3-siGPX4-1-16 synthesized in Example 3 through a CCK8 method, illustrating the in vitro antitumor effects of nucleic acid drugs in drug-resistant cells.
(§4) The drug-resistant LNCaP-DTP and MyC-CaP-DTP cells as well as 22Rv1 cells which are themselves ENZ-resistant were seeded in a 96-well plate containing fresh 1640 medium and attached. Subsequently, 1 to 16 siPRDX5, siGPX4, siPRDX5+siGPX4, and negative control si-neg were added, and the transfection mixture was sucked out after successful interference. The medium was replaced with a normal complete medium (1640 medium containing 10% fetal bovine serum and 1% double antibody) and continued to be cultured in the incubator for 24 h. Finally, a CCK8 assay was performed for determination and the cell survival was calculated by OD450 value.

In another data set the test system is PRDX5 enzyme activity. Put plainly: PRDX5 enzyme activity in prostate tissue of CRPC mice (thioredoxin system). The class given is in vivo, mouse. To be noted: administration for 30 days, ENZ 10 mg/Kg gavage, siRNA 100 nM tail vein injection. How it is done: (§5) A C-MYC (Hi-Myc)-overexpressing and spontaneous prostate cancer mouse model was constructed. mPIN/Cancer transition was developed in mice at the age of 4 months, at which time the mice were randomly grouped into NC control group (gavaged with solvent) and ENZ administration group. The ENZ administration group was given 10 mg/Kg ENZ by gavage every three days for a total of 30 days, and then some of the mice were sacrificed by cervical dislocation and their prostates were taken for photographing and weighing. […] Afterwards, the rest of the mice continued to be administrated according to the above method for 60 days. A recurrence was found in the ENZ group, and the CRPC mice were successfully obtained. […]
Assay for PRDX5 enzyme activity: the PRDX5 enzyme activity was determined using the thioredoxin system. Specifically, the rate of H2O2 degradation was measured by detecting the reduction of A340 caused by NADPH oxidation. […]

The next data set concerns LNCaP-DTP cells. Put plainly: CCK8 cell survival, LNCaP-DTP cells. The class given is cell-based, human. As to the method:
as §3, §4

Data set [1] deals with C-MYC (Hi-Myc)-overexpressing and spontaneous prostate cancer mouse model. Put plainly: C-MYC (Hi-Myc)-overexpressing spontaneous prostate cancer mouse model, ENZ gavage before resistance. The data set is classed as in vivo. As to the method: as §5, with “obtained. Afterwards, the mice (i.e., mice at the age of 7 months) were randomly grouped into NC control group (continuously gavaged with solvent), ENZ single drug group, nucleic acid drug siPRDX5-1 group, ENZ and siPRDX5-1 co-administration group, nucleic acid drug siPRDX5-16 group, ENZ and siPRDX5-16 co-administration group, nucleic acid drug siGPX4-1 group, ENZ and siGPX4-1 co-administration group, nucleic acid drug siGPX4-16 group, ENZ and siGPX4-16 co-administration group, nucleic acid drugs siPRDX5-16+siGPX4-16 group, and ENZ and siPRDX5-16+siGPX4-16 co-administration group. The corresponding administrations were performed.” for “obtained.”

For a further data set, the system named is CRPC mice. Put plainly: Drug-resistant CRPC formed by continuous ENZ in C-MYC-overexpressing prostate cancer mice: prostate weight, HE staining. The class given is in vivo, mouse. The conditions noted are these: CRPC mice after drug resistance and recurrence; every three days for 30 days; ENZ 10 mg/Kg gavage, siRNA 100 nM tail vein injection. As to the method:
as §5, with “obtained. Afterwards, the mice (i.e., mice at the age of 7 months) were randomly grouped into NC control group (continuously gavaged with solvent), ENZ single drug group, nucleic acid drug siPRDX5-1 group, ENZ and siPRDX5-1 co-administration group, nucleic acid drug siPRDX5-16 group, ENZ and siPRDX5-16 co-administration group, nucleic acid drug siGPX4-1 group, ENZ and siGPX4-1 co-administration group, nucleic acid drug siGPX4-16 group, ENZ and siGPX4-16 co-administration group, nucleic acid drugs siPRDX5-16+siGPX4-16 group, and ENZ and siPRDX5-16+siGPX4-16 co-administration group. The corresponding administrations were performed.” for “obtained.”

From patent US20250066794A1, “Application of PRDX5 and GPX4 Genes in Preparation of Drugs for Castration-resistant Prostate Cancer” (Jiangnan University, priority 2023, published 2025) come the findings set out here.

On to “#4-siGPX4: unmodified double-stranded siRNA against GPX4, SEQ ID NO. 5 and SEQ ID NO. 6 (chain 1 GUGAGGCAAGACCGAAGUAAA; chain 2 UUUACUUCGGUCUUGCCUCACUG; unmodified RNA)”, for which, in the data set with GPX4 gene, the “mRNA expression level of GPX4” value is “around 0.24” and the “interference activity on GPX4 gene expression (in words)” value is reported as “superior”. The “Relative expression level of GPX4 gene” value in the data set on GPX4 gene (LNCaP cells) came to 0.220. For the same compound, the “Relative expression level of GPX4 gene” value in the data set with GPX4 gene (LNCaP-DTP cells) is given as 0.265. Moreover, the “expression of GPX4, including mRNA level and protein level” value in the data set with GPX4 is given as “substantially reducing the expression of GPX4”.
Consider “#3-siPRDX5: unmodified double-stranded siRNA against PRDX5, SEQ ID NO. 1 and SEQ ID NO. 2 (chain 1 CAGACUUAUUACUAGAUGAUU; chain 2 AAUCAUCUAGUAAUAAGUCUGUC; unmodified RNA)”, for which the “expression of PRDX5, including mRNA level and protein level” value with PRDX5 is given as “substantially reducing the expression of PRDX5”. In the data set on PRDX5 gene, the “mRNA expression level of PRDX5” value is recorded as “around 0.16”. Also, the figures for the “Relative expression level of PRDX5 gene” value with PRDX5 gene (LNCaP cells) and with PRDX5 gene (LNCaP-DTP cells) were 0.125 and 0.197, respectively. For the same compound, the “interference activity on PRDX5 gene expression (in words)” value in the data set with PRDX5 gene (drug-resistant or non-drug-resistant LNCaP cells and MyC-CaP cells) is “superior”.
Regarding “#1-siPRDX5: unmodified double-stranded siRNA against PRDX5, SEQ ID NO. 7 and SEQ ID NO. 8 (chain 1 AGACAGACUUAUUACUAGAUGAUUC; chain 2 GAAUCAUCUAGUAAUAAGUCUGUCUCC; chain 1: all phosphodiester, sugars by position and methylation of C not given here; chain 2: unmodified RNA)”, the “mRNA expression level of PRDX5” value with PRDX5 gene is recorded as “around 0.60”. Besides, the results for the “Relative expression level of PRDX5 gene” value with PRDX5 gene (LNCaP cells) and in the data set with PRDX5 gene (LNCaP-DTP cells) were 0.605 and 0.621, respectively.
For the compound “#1-siGPX4: unmodified double-stranded siRNA against GPX4, SEQ ID NO. 11 and SEQ ID NO. 12 (chain 1 GUGAGGCAAGACCGAAGUAAACUAC; chain 2 GUAGUUUACUUCGGUCUUGCCUCACUG; unmodified RNA)”, in the data set on GPX4 gene, the “mRNA expression level of GPX4” value was “around 0.73”. Further, the “Relative expression level of GPX4 gene” value in the data set with GPX4 gene (LNCaP cells) came out at 0.700; with GPX4 gene (LNCaP-DTP cells) it was 0.735.
In the case of “#2-siPRDX5: unmodified double-stranded siRNA against PRDX5, SEQ ID NO. 9 and SEQ ID NO. 10 (chain 1 GGCCAGAUUUCUGCAAUAAACACUU; chain 2 AAGUGUUUAUUGCAGAAAUCUGGCCAA; chain 1: all phosphodiester, sugars by position and methylation of C not given here; chain 2: unmodified RNA)”, the “mRNA expression level of PRDX5” value in the data set on PRDX5 gene is on record as “around 0.60”. Moreover, the “Relative expression level of PRDX5 gene” value turned out to be 0.580 in the data set on PRDX5 gene (LNCaP cells) and 0.629 in the data set with PRDX5 gene (LNCaP-DTP cells).
In the case of `CNC(=O)c1ccc(N2C(=S)N(c3ccc(C#N)c(C(F)(F)F)c3)C(=O)C2(C)C)cc1F` [ENZ, Enzalutamide], the “growth inhibition (in words)” value in the data set on MyC-CaP-DTP cells and in the data set with LNCaP-DTP cells was “no longer has a significant inhibitory effect” each time. Also, the “PRDX5 enzyme activity relative to NC group” value in the data set on PRDX5 enzyme activity was 4.56. In data set [1] (administration continued for 60 further days), the “recurrence on continued administration” value is on record as “recurrence”. Moreover, the “prostate weight compared to that of the NC control group” value in [1] (mice aged 4 months, 10 mg/Kg ENZ by gavage every three days for 30 days) is “reduced by half”. For the same compound, the “Mean mouse prostate weight” value in the data set on CRPC mice is on record as 66.67 mg.
Take “#3-siGPX4: unmodified double-stranded siRNA against GPX4, SEQ ID NO. 3 and SEQ ID NO. 4 (chain 1 ACAACGUCAAAUUCGAUAUGU; chain 2 ACAUAUCGAAUUUGACGUUGUAC; unmodified RNA)”: in the data set on GPX4 gene, the “mRNA expression level of GPX4” value is listed as “around 0.21” and the “interference activity on GPX4 gene expression (in words)” value was “superior interference activity than the #4-siGPX4”. For the same compound, the “Relative expression level of GPX4 gene” value in the data set on GPX4 gene (LNCaP cells) came to 0.180. In the data set with GPX4 gene (LNCaP-DTP cells), the “Relative expression level of GPX4 gene” value is given as 0.245. Further, the “expression of GPX4, including mRNA level and protein level” value with GPX4 is reported as “substantially reducing the expression of GPX4”.
Take “#2-siGPX4: unmodified double-stranded siRNA against GPX4, SEQ ID NO. 13 and SEQ ID NO. 14 (chain 1 CUACAACGUCAAAUUCGAUAUGUUC; chain 2 GAACAUAUCGAAUUUGACGUUGUAGCC; chain 1: all phosphodiester, sugars by position not given here; chain 2: RNA, phosphodiester; further chemistry not fully specified)”: in the data set with GPX4 gene, the “mRNA expression level of GPX4” value was “around 0.73”. In addition, the “Relative expression level of GPX4 gene” value in the data set on GPX4 gene (LNCaP cells) stood at 0.730; with GPX4 gene (LNCaP-DTP cells) it was 0.755.
